The values below come from patent publication US4535081A, “Antiallergic and antiulcer 1-oxo-1H-thiazolo[3,2-a]pyrimidine-2-carboxamides and intermediates therefor” (Pfizer Inc., priority 1983, dated 1985).

The structures appear in SMILES notation. Like-named read-outs stand apart in the source and are kept apart here.

In experiment [1] the test system is IgE (reaginic antiserum) PCA reaction. In words: Oral activity in PCA test, IgE. Format: in vivo, rat. The note with it: Rattus norvegicus, IgE, oral. The procedure: (§1) The antiallergy property of the compounds of this invention is evaluated by the passive cutaneous anaphylaxis (PCA) test (Ovary, J. Immun., 81, 355, 1958). In the PCA test, normal animals are injected intradermally (i.d.) with antibodies contained in serum obtained from actively sensitized animals. The animals are then challenged intravenously with antigen mixed with a dye such as Evans' Blue. The increased capillary permeability caused by the antigen-antibody reaction causes the dye to leak from the site of the antibody injection. The test animals are then asphyxiated and the intensity of the reaction determined by measuring the diameter and intensity of the blue coloration on the inner surface of the animals' skin.
The PCA test is a measure of the anti-allergic (especially anti-asthmatic) activity of a compound. Compounds which inhibit a positive PCA test induced by the rat immunochemical counterpart of human immunoglobulin E (IgE), or reagin, are considered to have anti-allergic activity (C. Mota, Ann. N.Y. Acad. Sci., 103, 264 1963). (Reagin is primarily immunoglobulin E [IgE] and is the principal immunoglobulin responsible for allergic asthma, anaphylaxis, hay fever, food sensitivities and certain manifestations of drug sensitivities, although recent evidence ascribes to the IgG class of antibodies a significant role in the mediation of allergic diseases). Such compounds when administered to a sensitized subject, human or animal, prior to the time when the subject comes into contact with antigens or substances to which it is allergic, will prevent the allergic reaction which would otherwise occur. They, therefore, provide a method for the prophylactic treatment of allergy or anaphylactic reactions of a reagin mediated nature.
To put it another way, such compounds block the release of mediators resulting from the antigen-antibody (allergic) reaction as illustrated in the PCA test using rat homocytotropic antibody--a known correlate of human reaginic antibody. Inhibition of reaginic antigen-antibody reactions in rats, the test animal of the PCA test, is regarded as representative of inhibition of human reaginic antigen-antibody reactions which occur during allergic episodes.
The ability of agents to interfere with PCA reactions is measured in male Charles River Wistar rats, 170-210 g. Reaginic antiserum, rich in IgE antibodies, is prepared according to Petillo et al., Int. Arch. Allergy, 44, 309 (1973). Hyperimmune antiserum rich in IgG antibodies to hen egg albumin is prepared according to Orange et al., J. Exptl. Med., 127, 767 (1968). Forty-eight hours prior to antigen challenge, the reaginic antiserum is injected intradermally (i.d.) into the shaved skin of a normal rat's back; 5 hours before challenge the hyperimmune antisera is similarly injected. At a third site 60 mcg. histamine dihydrochloride and 0.5 mcg. serotonin creatinine sulfate are injected i.d. just prior to antigen challenge as a check for antihistaminic, antiserotonin and unspecific types of blockage; the compounds of the instant invention or saline are then administered i.v. and immediately followed by the challenge of 5 mg. egg albumen and 2.5 mg. Evans' Blue dye in saline. In the case of oral administration Evans' Blue dye and egg albumin are given 5 minutes after administration of the drug. Thirty minutes later the animals are asphyxiated using chloroform and the skin of the back removed and reversed for observation. A score is assigned each injection site equal to the product of the diameter of the site in mm. and a grade of 0.1, 0.5, 1, 2, 3 or 4 proportional to intensity of dye coloration. The scores for a given injection site are summed for each group of five animals and compared to the saline treated controls. The difference is expressed as percent blockage due to the compound employed. […]

Experiment [2] has as its system IgG (hyperimmune antiserum) PCA reaction. Put plainly: Oral activity in PCA test, IgG. Format: in vivo. The note with it: Rattus norvegicus. The procedure:
as §1
The ability of agents to interfere with PCA reactions is measured in male Charles River Wistar rats, 170-210 g. Reaginic antiserum, rich in IgE antibodies, is prepared according to Petillo et al., Int. Arch. Allergy, 44, 309 (1973). Hyperimmune antiserum rich in IgG antibodies to hen egg albumin is prepared according to Orange et al., J. Exptl. Med., 127, 767 (1968). Forty-eight hours prior to antigen challenge, the reaginic antiserum is injected intradermally (i.d.) into the shaved skin of a normal rat's back; 5 hours before challenge the hyperimmune antisera is similarly injected. At a third site 60 mcg. histamine dihydrochloride and 0.5 mcg. serotonin creatinine sulfate are injected i.d. just prior to antigen challenge as a check for antihistaminic, antiserotonin and unspecific types of blockage; the compounds of the instant invention or saline are then administered i.v. and immediately followed by the challenge of 5 mg. egg albumen and 2.5 mg. Evans' Blue dye in saline. In the case of oral administration Evans' Blue dye and egg albumin are given 5 minutes after administration of the drug. Thirty minutes later the animals are asphyxiated using chloroform and the skin of the back removed and reversed for observation. A score is assigned each injection site equal to the product of the diameter of the site in mm. and a grade of 0.1, 0.5, 1, 2, 3 or 4 proportional to intensity of dye coloration. The scores for a given injection site are summed for each group of five animals and compared to the saline treated controls. The difference is expressed as percent blockage due to the compound employed.
Compounds representative of those of the present invention are tested for antiallergy activity by the above-described procedure and the resulting activities are reported as the degree (%) of protection.

Setting [3] is: Table II acids, read-out: Oral Activity (% of Protection) of Acids in the PCA Test, IgE.
The mark [4] stands for this setting: Table II acids, read-out: Oral Activity (% of Protection) of Acids in the PCA Test, IgG.
Where [5] appears, read: Table I amides, read-out: Oral Activity (% of Protection) in the PCA Test, IgE.
Where [6] appears, read: Table I amides, read-out: Oral Activity (% of Protection) in the PCA Test, IgG.

With `O=C(O)c1cnc2sccn2c1=O` [Formula II: R1=H, R2=H], the results for the inhibition in vivo at 30 mg/kg in experiment [1] (setting [3]) and in experiment [2] (setting [4]) were 18% and 7%, respectively.

On to `CC(C)(C)c1csc2ncc(C(=O)O)c(=O)n12` [Formula II: R1=H, R2=C(CH3)3, 1-Oxo-1H-7-(2-methyl-2-propyl)thiazolo[3,2-a]pyrimidine-2-carboxylic Acid], for which the inhibition in vivo at 30 mg/kg in experiment [1] (setting [3]) was found to be 10%; in experiment [2] (setting [4]), 6%.

For `CCC(C)c1csc2ncc(C(=O)O)c(=O)n12` (centres unmarked) [1-Oxo-1H-7-(2-butyl)thiazolo[3,2-a]pyrimidine-2-carboxylic Acid], the values for the inhibition in vivo at 30 mg/kg in experiment [1] (setting [3]) and in experiment [2] (setting [4]) were 1% and 8%, respectively.

Consider `O=C(O)c1cnc2sc3c(n2c1=O)CCCCC3` [Formula II: (CH2)5, 1-Oxo-1H-cycloheptenothiazolo[3,2-a]pyrimidine-2-carboxylic Acid], for which the inhibition in vivo at 30 mg/kg in experiment [1] (setting [3]) is 37%; in experiment [2] (setting [4]), 44%.

`O=C(O)c1cnc2sc3c(n2c1=O)CCC3` [Formula II: (CH2)3, 1-Oxo-1H-cyclopentenothiazolo[3,2-a]pyrimidine-2-carboxylic Acid]: the inhibition in vivo at 30 mg/kg in experiment [1] (setting [3]) and in experiment [2] (setting [4]) was 0% in each case.

Regarding `CCc1c(C)sc2ncc(C(=O)Nc3nnn[nH]3)c(=O)n12` [Formula I: R1=CH3, R2=C2H5, N-(5-Tetrazolyl)-1-oxo-1H-6-methyl-7-ethylthiazolo[3,2-a]pyrimidine-2-carboxamide], the inhibition in vivo at 30 mg/kg in experiment [1] (setting [5]) stood at 75%; in experiment [2] (setting [6]) it was 57%.

In the case of `CCc1sc2ncc(C(=O)O)c(=O)n2c1C` [Formula II: R1=C2H5, R2=CH3, 1-Oxo-1H-6-ethyl-7-methylthiazolo[3,2-a]pyrimidine-2-carboxylic Acid], the inhibition in vivo at 30 mg/kg in experiment [1] (setting [3]) is 42%; in experiment [2] (setting [4]), 24%.

As for `CC1CCc2c(sc3ncc(C(=O)O)c(=O)n23)C1` (centres unmarked) [Formula II: CH2CH(CH3)CH2CH2, 1-Oxo-1H-7-methylcyclohexenothiazolo[3,2-a]pyrimidine-2-carboxylic Acid], the inhibition in vivo at 30 mg/kg in experiment [1] (setting [3]) was found to be 31%; in experiment [2] (setting [4]), 21%.

Regarding `CC(C)(C)c1csc2ncc(C(=O)Nc3nnn[nH]3)c(=O)n12` [Formula I: R1=H, R2=C(CH3)3, N-(5-Tetrazolyl)-1-oxo-1H-7-(2-methyl-2-propyl)thiazolo[3,2-a]pyrimidine-2-carboxamide], the inhibition in vivo at 30 mg/kg in experiment [1] (setting [5]) is 37%; in experiment [2] (setting [6]) it was 20%.

Take `CCc1csc2ncc(C(=O)O)c(=O)n12` [Formula II: R1=H, R2=C2H5, 1-Oxo-1H-7-ethylthiazolo[3,2-a]pyrimidine-2-carboxylic Acid]: the inhibition in vivo at 30 mg/kg in experiment [1] (setting [3]) is 13%; in experiment [2] (setting [4]) it was 21%.

Turning to `CCc1c(C)sc2ncc(C(=O)O)c(=O)n12` [Formula II: R1=CH3, R2=C2H5, 1-Oxo-1H-6-methyl-7-ethylthiazolo[3,2-a]pyrimidine-2-carboxylic Acid], the inhibition in vivo at 30 mg/kg in experiment [1] (setting [3]) and in experiment [2] (setting [4]) was 0% throughout.

Consider `O=C(Nc1nnn[nH]1)c1cnc2sc3c(n2c1=O)CCCCC3` [Formula I: (CH2)5, N-(5-Tetrazolyl)-1-oxo-1H cycloheptenothiazolo[3,2-a]pyrimidine-2-carboxamide], for which the inhibition in vivo at 30 mg/kg was 25% in experiment [1] (setting [5]) and 38% in experiment [2] (setting [6]).

Regarding `O=C(O)c1cnc2sc3c(n2c1=O)CCC(c1ccccc1)C3` (centres unmarked) [Formula II: CH2CH(C5H6)CH2CH2, 1-oxo-1H-7-phenylcyclohexenothiazolo[3,2-a]pyrimidine-2-carboxylic Acid], the inhibition in vivo at 30 mg/kg in experiment [1] (setting [3]) was 15%; in experiment [2] (setting [4]) it was 5%.

In the case of `CC(C)c1csc2ncc(C(=O)Nc3nnn[nH]3)c(=O)n12` [Formula I: R1=H, R2=CH(CH3)2, N-(5-Tetrazolyl)-1-oxo-1H-7-isopropylthiazolo[3,2-a]pyrimidine-2-carboxamide], the inhibition in vivo at 30 mg/kg turned out to be 72% in experiment [1] (setting [5]) and 53% in experiment [2] (setting [6]).

For the compound `CC1(C)CCc2c(sc3ncc(C(=O)O)c(=O)n23)C1` [Formula II: CH2C(CH3)2CH2CH2, 1-Oxo-1H-7,7-dimethylcyclohexenothiazolo[3,2-a]pyrimidine-2-carboxylic Acid], the inhibition in vivo at 30 mg/kg in experiment [1] (setting [3]) was 13%; in experiment [2] (setting [4]), 6%.

As to `O=C(Nc1nnn[nH]1)c1cnc2sc3c(n2c1=O)CCC3` [Formula I: (CH2)3, N-(5-Tetrazolyl)-1-oxo-1H-cyclopentenothiazolo[3,2-a]pyrimidine-2-carboxamide], the inhibition in vivo at 1 mg/kg came to 46% in experiment [1] (1 mg./kg., read-out: Oral Activity (% of Protection) in the PCA Test, IgE) and 43% in experiment [2] (1 mg./kg., read-out: Oral Activity (% of Protection) in the PCA Test, IgG).

Take `CC(C)c1csc2ncc(C(=O)O)c(=O)n12` [Formula II: R1=H, R2=CH(CH3)2, 1-Oxo-1H-7-isopropylthiazolo[3,2-a]pyrimidine-2-carboxylic Acid]: the inhibition in vivo at 30 mg/kg in experiment [1] (setting [3]) and in experiment [2] (setting [4]) was 0% throughout.

`O=C(O)c1cnc2sc3c(n2c1=O)CCCCCC3` [Formula II: (CH2)6, 1-Oxo-1H-cyclooctenothiazolo[3,2-a]pyrimidine-2-carboxylic Acid]: the inhibition in vivo at 10 mg/kg in experiment [1] (10 mg./kg., Table II acids, read-out: Oral Activity (% of Protection) of Acids in the PCA Test, IgE) was determined as 36%; in experiment [2] (10 mg./kg., Table II acids, read-out: Oral Activity (% of Protection) of Acids in the PCA Test, IgG), 15%. Also, the inhibition in vivo at 30 mg/kg in experiment [1] (setting [3]) came to 68%; in experiment [2] (setting [4]) it was 45%.

For the compound `CCc1csc2ncc(C(=O)Nc3nnn[nH]3)c(=O)n12` [Formula I: R1=H, R2=C2H5, N-(5-Tetrazolyl)-1-oxo-1H-7-ethylthiazolo[3,2-a]pyrimidine-2-carboxamide], the inhibition in vivo at 30 mg/kg in experiment [1] (setting [5]) was found to be 70%; in experiment [2] (setting [6]) it was 44%.

`CCc1sc2ncc(C(=O)Nc3nnn[nH]3)c(=O)n2c1C` [Formula I: R1=C2H5, R2=CH3, N-(5-Tetrazolyl)-1-oxo-1H-6-ethyl-7-methylthiazolo[3,2-a]pyrimidine-2-carboxamide]: the figures for the inhibition in vivo at 30 mg/kg in experiment [1] (setting [5]) and in experiment [2] (setting [6]) were 29% and 28%, respectively.

As to `O=C(Nc1nnn[nH]1)c1cnc2sccn2c1=O` [Formula I: R1=H, R2=H], the inhibition in vivo at 30 mg/kg in experiment [1] (setting [5]) came out at 50%; in experiment [2] (setting [6]), 46%.
